From patent US9340559B2, “Proteasome inhibitor delanzomib for use in the treatment of lupus” (Cephalon, Inc., priority 2011, dated 2016)
Where two headings read alike, the source gives them in different places.

What was measured:
Format in all cases: in vivo, mouse
MRL/lpr mice = test: Urinalysis: total urine protein (proteinuria), MRL/lpr mice
Procedure: Urine samples are acid precipitated for total protein recovery and analysis. Samples for which enough urine remained are used for Uristix® leukouria analysis. Briefly, a standard protein solution is prepared from normal mouse sera and is used as a standard for mouse urinary protein assay by turbidity. Standard preparation is as follows: 0, 5, 10, 15, 20, 30, 40, and 50 μL of a 4 mg/mL mouse sera standard protein solution as provided in the kit are added in duplicate into two columns. PBS is added to individual wells to adjust the final volume to 50 μL. For urine sample preparation, urine samples are centrifuged at 9880×g for 3 minutes using a tabletop micro-centrifuge. Urine supernatant (1-50 μL) is added in duplicate. PBS is added to adjust the volume to 50 μL total. For the turbidity assay: 25 μL of 0.1 N HCl is added into blank columns and 250 μL of 3% sulfosalicyclic acid into the test columns. The microplate is incubated for 10 minutes at RT and plates are read using an ELISA reader with single beam at 450 nm. For the Uristix® strip assay, strips are laid out and labeled. Twenty microliters of urine are placed onto each test strip square and incubated for at least 30 seconds before the result is recorded. For all total urine analysis plate-based assays, values below the limit of detection set by the lowest point along the standard or set by the manufacturer are considered out of range and are not estimated, but assumed the lowest point along the standard curve for that particular assay.

NZM mice [1] = tested on: NZM mice
NZM mice [2] = test: Antibody secreting B-cell Elispot (anti-chromatin, total IgG ASC), spleens of NZM mice (Example 2)
Procedure: (§1) FIG. 34 depicts the frequency of anti-chromatin antibody secreting cells in the spleens of NZM mice. NZM treated mice spleens were processed for splenocytes for ex vivo Elispot assays. Elispot wells were coated with 10 μg/mL of boiled chicken chromatin or ovalbumin protein. Fresh, whole splenocytes were added to each well at 50,000 cells per well in cell culture medium. Cells were incubated overnight at 37° C. Developed wells provided spots that were counted as frequency of ASCs per million splenocytes.
as §1, with “35” for “34”, “total IgG” for “anti-chromatin”, “anti-mouse IgG, IgH, and IgL chains.” for “boiled chicken chromatin or ovalbumin protein.”
B-cell Elispot components are ordered from MabTech (Nacka Strand, Sweden) and nitrocellulose IP filter plates are ordered from Millipore (Billerica, Mass.). Elispot wells are coated with either purified bovine thymus dsDNA (Sigma), purified bovine Smith antigen (GenWay) or boiled filtered purified chicken chromatin from lysed chicken red blood cells (Rockland, Gilbertsville, Pa.) at 10 μg/mL. Spleens are processed using glass homogenization (frosted slides). Dispersed cell contents are washed in sterile HBSS and RBCs lysed using 1×RBC lysis buffer (BioLegend, Cat #420301). Processed splenocytes are added to each well and are not stimulated with lipopolysaccharide (LPS) to avoid skewing of true ex vivo frequencies of antibody-secreting cell types (ASCs). Anti-mouse pan-IgG is used as a positive control for total IgG producing ASCs and is used to normalize results. Frequencies for each antigen are identified in an initial test phase for each model. For chromatin and total IgG only, 30,000 splenocytes are added to each well; for Smith antigen and dsDNA, 500,000 cells are added to each well. Different numbers of splenocytes are added for different antigens due to saturation limits of spot frequencies per well. B-cell Elispots are incubated overnight at 37° C. To develop each assay, secondary antibody is added to each well, incubated, washed and alkaline phosphatase strepavidin (Jackson ImmunoResearch, West Grove, Pa.) is used as the conjugate; substrate used is BCIP-NBT (MabTech, Cincinnati, Ohio). Plates are developed until spots are visible. All Elispot analyses are performed using an Immunospot C.T.L. scanner and Biospot software (Cellular Technology Ltd., Shaker Heights, Ohio). Results are shown as values from which media and cells only wells are subtracted. Some values are negative due to high background.

CC(C)C[C@H](NC(=O)[C@H](Cc1ccccc1)NC(=O)c1cnccn1)B(O)O [bortezomib, reference compound]
Urine AUC proteinuria, percent change vs vehicle (MRL/lpr mice; G4: 0.5 mg/kg iv, 1× wk): −55%
Urine AUC proteinuria, percent change vs vehicle (MRL/lpr mice; G5: 0.3 mg/kg iv, 2× wk): −50%
proteinuria decrease relative to vehicle (MRL/lpr mice; treated weekly with bortezomib): 55%
Cytokine IL-12 AUC, percent change vs vehicle (NZM mice [1]; G3 0.3 mg/kg ip, 1× wk): −32%
Cytokine IL-13 AUC, percent change vs vehicle (NZM mice [1]; G3 0.3 mg/kg ip, 1× wk): −66%
Cytokine IL-17A AUC, percent change vs vehicle (NZM mice [1]; G3 0.3 mg/kg ip, 1× wk): −73%
Cytokine IP-10 AUC, percent change vs vehicle (NZM mice [1]; G3 0.3 mg/kg ip, 1× wk): −50%
Cytokine MIG AUC, percent change vs vehicle (NZM mice [1]; G3 0.3 mg/kg ip, 1× wk): −67%
Cytokine TNFα AUC, percent change vs vehicle (NZM mice [1]; G3 0.3 mg/kg ip, 1× wk): 12%
Cytokine IL-12 AUC, percent change vs vehicle (NZM mice [1]; G4 0.3 mg/kg ip, 2× wk): −55%
Cytokine IL-13 AUC, percent change vs vehicle (NZM mice [1]; G4 0.3 mg/kg ip, 2× wk): −65%
Cytokine IL-17A AUC, percent change vs vehicle (NZM mice [1]; G4 0.3 mg/kg ip, 2× wk): −85%
Cytokine IP-10 AUC, percent change vs vehicle (NZM mice [1]; G4 0.3 mg/kg ip, 2× wk): −59%
Cytokine MIG AUC, percent change vs vehicle (NZM mice [1]; G4 0.3 mg/kg ip, 2× wk): −72%
Cytokine TNFα AUC, percent change vs vehicle (NZM mice [1]; G4 0.3 mg/kg ip, 2× wk): −29%
p, serum IL-12p40/p70 concentration vs G9 Vehicle 1× wk ip (NZM mice [1]; G5 0.3 mg/kg 1× wk ip): NS (NS = not significant (p > 0.05))
p, serum IL-13 concentration vs G9 Vehicle 1× wk ip (NZM mice [1]; G5 0.3 mg/kg 1× wk ip): NS (NS = not significant (p > 0.05))
p, serum IL-17A concentration vs G9 Vehicle 1× wk ip (NZM mice [1]; G5 0.3 mg/kg 1× wk ip): NS (NS = not significant (p > 0.05))
p, serum IP-10 concentration vs G9 Vehicle 1× wk ip (NZM mice [1]; G5 0.3 mg/kg 1× wk ip): p < 0.001
p, serum MIG concentration vs G9 Vehicle 1× wk ip (NZM mice [1]; G5 0.3 mg/kg 1× wk ip): NS (NS = not significant (p > 0.05))
p, serum TNFα concentration vs G9 Vehicle 1× wk ip (NZM mice [1]; G5 0.3 mg/kg 1× wk ip): NS (NS = not significant (p > 0.05))
p, serum IL-12p40/p70 concentration vs G9 Vehicle 1× wk ip (NZM mice [1]; G6 0.3 mg/kg 2× wk ip): p < 0.05
p, serum IL-13 concentration vs G9 Vehicle 1× wk ip (NZM mice [1]; G6 0.3 mg/kg 2× wk ip): NS (NS = not significant (p > 0.05))
p, serum IL-17A concentration vs G9 Vehicle 1× wk ip (NZM mice [1]; G6 0.3 mg/kg 2× wk ip): NS (NS = not significant (p > 0.05))
p, serum IP-10 concentration vs G9 Vehicle 1× wk ip (NZM mice [1]; G6 0.3 mg/kg 2× wk ip): p < 0.001
p, serum MIG concentration vs G9 Vehicle 1× wk ip (NZM mice [1]; G6 0.3 mg/kg 2× wk ip): NS (NS = not significant (p > 0.05))
p, serum TNFα concentration vs G9 Vehicle 1× wk ip (NZM mice [1]; G6 0.3 mg/kg 2× wk ip): NS (NS = not significant (p > 0.05))
serum IL-12 decrease vs vehicle, range over the substance's groups (NZM mice [1]; once and twice weekly groups): 32-55%
serum CXCL9/MIG as compared to CTX (NZM mice [1]; p<0.001 vs CTX, but not to DEX): decreased
IL-13 serum levels compared to vehicle (NZM mice [1]; treatment groups): No significant change
IL-17A serum levels compared to vehicle (NZM mice [1]; treatment groups): No significant change
ASC chromatin EOS, percent change vs vehicle (NZM mice [2]; G3 0.3 mg/kg ip, 1× wk): −46%
ASC total IgG EOS, percent change vs vehicle (NZM mice [2]; G3 0.3 mg/kg ip, 1× wk): −1%
ASC chromatin EOS, percent change vs vehicle (NZM mice [2]; G4 0.3 mg/kg ip, 2× wk): −74%
ASC total IgG EOS, percent change vs vehicle (NZM mice [2]; G4 0.3 mg/kg ip, 2× wk): −31%

C[C@@H]1C[C@H]2[C@@H]3CCC4=CC(=O)C=C[C@]4(C)[C@@]3(F)[C@@H](O)C[C@]2(C)[C@@]1(O)C(=O)CO [dexamethasone, Dexamethasone, reference compound]
Urine AUC proteinuria, percent change vs vehicle (MRL/lpr mice; G6: 1.5 mg/kg ip, 3× wk): −46%
Cytokine IL-12 AUC, percent change vs vehicle (NZM mice [1]; G5 1.5 mg/kg ip, 3× wk): −48%
Cytokine IL-13 AUC, percent change vs vehicle (NZM mice [1]; G5 1.5 mg/kg ip, 3× wk): −56%
Cytokine IL-17A AUC, percent change vs vehicle (NZM mice [1]; G5 1.5 mg/kg ip, 3× wk): −55%
Cytokine IP-10 AUC, percent change vs vehicle (NZM mice [1]; G5 1.5 mg/kg ip, 3× wk): −37%
Cytokine MIG AUC, percent change vs vehicle (NZM mice [1]; G5 1.5 mg/kg ip, 3× wk): −68%
Cytokine TNFα AUC, percent change vs vehicle (NZM mice [1]; G5 1.5 mg/kg ip, 3× wk): 79%
p, serum IL-12p40/p70 concentration vs G5 Bortezomib 0.3 mg/kg 1× wk ip (NZM mice [1]; G8 1.5 mg/kg 3× wk ip): NS (NS = not significant (p > 0.05))
p, serum IL-12p40/p70 concentration vs G6 Bortezomib 0.3 mg/kg 2× wk ip (NZM mice [1]; G8 1.5 mg/kg 3× wk ip): NS (NS = not significant (p > 0.05))
p, serum IL-12p40/p70 concentration vs G7 CTX 50 mg/kg 1× wk ip (NZM mice [1]; G8 1.5 mg/kg 3× wk ip): NS (NS = not significant (p > 0.05))
p, serum IL-12p40/p70 concentration vs G9 Vehicle 1× wk ip (NZM mice [1]; G8 1.5 mg/kg 3× wk ip): NS (NS = not significant (p > 0.05))
p, serum IL-13 concentration vs G5 Bortezomib 0.3 mg/kg 1× wk ip (NZM mice [1]; G8 1.5 mg/kg 3× wk ip): NS (NS = not significant (p > 0.05))
p, serum IL-13 concentration vs G6 Bortezomib 0.3 mg/kg 2× wk ip (NZM mice [1]; G8 1.5 mg/kg 3× wk ip): NS (NS = not significant (p > 0.05))
p, serum IL-13 concentration vs G7 CTX 50 mg/kg 1× wk ip (NZM mice [1]; G8 1.5 mg/kg 3× wk ip): p < 0.001
p, serum IL-13 concentration vs G9 Vehicle 1× wk ip (NZM mice [1]; G8 1.5 mg/kg 3× wk ip): NS (NS = not significant (p > 0.05))
p, serum IL-17A concentration vs G5 Bortezomib 0.3 mg/kg 1× wk ip (NZM mice [1]; G8 1.5 mg/kg 3× wk ip): NS (NS = not significant (p > 0.05))
p, serum IL-17A concentration vs G6 Bortezomib 0.3 mg/kg 2× wk ip (NZM mice [1]; G8 1.5 mg/kg 3× wk ip): NS (NS = not significant (p > 0.05))
p, serum IL-17A concentration vs G7 CTX 50 mg/kg 1× wk ip (NZM mice [1]; G8 1.5 mg/kg 3× wk ip): p < 0.001
p, serum IL-17A concentration vs G9 Vehicle 1× wk ip (NZM mice [1]; G8 1.5 mg/kg 3× wk ip): NS (NS = not significant (p > 0.05))
p, serum IP-10 concentration vs G5 Bortezomib 0.3 mg/kg 1× wk ip (NZM mice [1]; G8 1.5 mg/kg 3× wk ip): NS (NS = not significant (p > 0.05))
p, serum IP-10 concentration vs G6 Bortezomib 0.3 mg/kg 2× wk ip (NZM mice [1]; G8 1.5 mg/kg 3× wk ip): NS (NS = not significant (p > 0.05))
p, serum IP-10 concentration vs G7 CTX 50 mg/kg 1× wk ip (NZM mice [1]; G8 1.5 mg/kg 3× wk ip): p < 0.001
p, serum IP-10 concentration vs G9 Vehicle 1× wk ip (NZM mice [1]; G8 1.5 mg/kg 3× wk ip): p < 0.001
p, serum MIG concentration vs G5 Bortezomib 0.3 mg/kg 1× wk ip (NZM mice [1]; G8 1.5 mg/kg 3× wk ip): NS (NS = not significant (p > 0.05))
p, serum MIG concentration vs G6 Bortezomib 0.3 mg/kg 2× wk ip (NZM mice [1]; G8 1.5 mg/kg 3× wk ip): NS (NS = not significant (p > 0.05))
p, serum MIG concentration vs G7 CTX 50 mg/kg 1× wk ip (NZM mice [1]; G8 1.5 mg/kg 3× wk ip): p < 0.001
p, serum MIG concentration vs G9 Vehicle 1× wk ip (NZM mice [1]; G8 1.5 mg/kg 3× wk ip): NS (NS = not significant (p > 0.05))
p, serum TNFα concentration vs G5 Bortezomib 0.3 mg/kg 1× wk ip (NZM mice [1]; G8 1.5 mg/kg 3× wk ip): NS (NS = not significant (p > 0.05))
p, serum TNFα concentration vs G6 Bortezomib 0.3 mg/kg 2× wk ip (NZM mice [1]; G8 1.5 mg/kg 3× wk ip): p <0.01
p, serum TNFα concentration vs G7 CTX 50 mg/kg 1× wk ip (NZM mice [1]; G8 1.5 mg/kg 3× wk ip): p <0.05
p, serum TNFα concentration vs G9 Vehicle 1× wk ip (NZM mice [1]; G8 1.5 mg/kg 3× wk ip): NS (NS = not significant (p > 0.05))
ASC chromatin EOS, percent change vs vehicle (NZM mice [2]; G5 1.5 mg/kg ip, 3× wk): −42%
ASC total IgG EOS, percent change vs vehicle (NZM mice [2]; G5 1.5 mg/kg ip, 3× wk): +19%
p, frequency of total IgG antibody secreting cells in spleen vs G7 CTX 50 mg/kg 1× wk ip (NZM mice [2]; G8 1.5 mg/kg 3× wk ip): p < 0.01
